Where two headings read alike, the source gives them in different places.
What was measured:
[1] = tested on: MV-4-11 cells; assay: Antiproliferative activity against MV-4-11 cells (CellTiter-Glo, 72 h); type: cell-based; details: Homo sapiens, read-out: Antiproliferative activity IC50
Experimental: MV411 cells in the logarithmic growth phase were diluted in a medium (RPMI+10% FBS) and plated at 5,000 cells/well in 96-well whole black plates (WHB) with 50 μL/well. After plating, the plates were incubated in an incubator at 5% CO2 and 37° C. for 24 h before the compounds were added. The compounds were prepared into a 10 mM stock solution in DMSO and diluted in a culture medium to the desired concentrations (a final DMSO concentration of 0.2%). […] The plates were incubated at 5% CO2 and 37° C. for 72 h. After the incubation was complete, the plates were equilibrated at room temperature for 30 min. CellTiter-Glo® Reagent (Promega G7573) was added at 100 μL/well. The plates were shaken for 12 min on a microplate shaker. The luminescence value was measured at room temperature by the GloMax navigator (Promega GM2010).

[2] = target: T1, GSPT1 protein (Homo sapiens, UniProt P15170); assay: Degradation of GSPT1 protein in NB-4 cells (Western blot); type: cell-based; details: read-out: GSPT1 degradation
T1 construct: The whole cell lysate was prepared using a RIPA lysis buffer; endogenous in cells; host or cells: NB-4 cells
T1 sequence (P15170 whole entry): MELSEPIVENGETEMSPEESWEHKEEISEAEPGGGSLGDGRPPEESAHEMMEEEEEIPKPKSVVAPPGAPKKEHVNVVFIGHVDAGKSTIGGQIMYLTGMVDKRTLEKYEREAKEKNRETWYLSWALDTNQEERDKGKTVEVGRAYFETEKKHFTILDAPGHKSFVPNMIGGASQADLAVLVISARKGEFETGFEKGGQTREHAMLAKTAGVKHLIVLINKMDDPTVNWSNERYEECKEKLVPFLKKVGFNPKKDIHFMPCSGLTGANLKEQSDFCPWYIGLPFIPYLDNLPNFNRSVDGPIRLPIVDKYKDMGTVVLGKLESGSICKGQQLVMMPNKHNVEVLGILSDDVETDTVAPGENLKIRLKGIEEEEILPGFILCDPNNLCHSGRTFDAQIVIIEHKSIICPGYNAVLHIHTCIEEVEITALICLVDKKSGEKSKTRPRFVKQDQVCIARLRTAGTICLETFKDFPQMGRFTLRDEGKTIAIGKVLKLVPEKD
Experimental: 150 μL of DMSO and the compounds (1 μM) were added, and the mixture was incubated in an incubator at 5% CO2 and 37° C. for 6 h. The cells were centrifuged, and the culture medium was discarded. PBS was added for washing and then discarded. The whole cell lysate was prepared using a RIPA lysis buffer containing a protease inhibitor cocktail and a phosphatase inhibitor, and incubated on ice for 30 min. The mixture was centrifuged, and the cell debris was discarded. The whole cell lysate supernatant was collected and transferred to a fresh EP tube. Samples were prepared using a loading buffer after a BCA protein assay. The samples were incubated in a metal bath at 100° C. for 10 min.
The samples were electrophoretically separated from proteins on a 4-20% precast gel (SDS-PAGE gel), transferred to a PVDF membrane, blocked with 5% NFDM/TBST for 1 h at room temperature, co-incubated overnight at 4° C. with the primary antibody, and co-incubated for 2 h at room temperature with the secondary antibody on the next day. The signals were detected on the […]™ imaging system.

| IC50 ([1]; MV4-11, MV-4-11 cells, 72 h) [nM] | inhibition at 1 µM ([2]; NB-4 cells, compound 1 μM, 6 h) [%] | SMILES | IC50 ([1]; MV4-11, 72 h) [nM] | inhibition at 1 µM ([2]; NB-4, 6 h) [%] |
| --- | --- | --- | --- | --- |
| 1 to 10 | > 80 | O=C1CCC(N2Cc3cc(CNC(=O)c4cc5ccccc5o4)c(F)cc3C2=O)C(=O)N1 (stereo not shown) [FDAB-19] |  |  |
| 10 to 100 | > 80 | O=C1CCC(N2Cc3cc(CNC(=O)c4ccc(Cl)cc4)c(F)cc3C2=O)C(=O)N1 (stereo not shown) [FDAB-23] |  |  |
| 1 to 10 | > 80 | O=C1CCC(N2Cc3cc(CNC(=O)c4cc5ccccc5[nH]4)c(F)cc3C2=O)C(=O)N1 (stereo not shown) [FDAB-24] |  |  |
| > 1000 | < 25 | O=C1CCC(N2Cc3cc(CNC(=O)c4ccccc4)c(F)cc3C2=O)C(=O)N1 (stereo not shown) [FDAB-25] |  |  |
| > 1000 | < 25 | O=C1CCC(N2Cc3cc(CNC(=O)c4ccc(F)cc4)c(F)cc3C2=O)C(=O)N1 (stereo not shown) [FDAB-26] |  |  |
| > 1000 | < 25 | Nc1ccc(C(=O)NCc2cc3c(cc2F)C(=O)N(C2CCC(=O)NC2=O)C3)cc1 (stereo not shown) [FDAB-27] |  |  |
| > 1000 | < 25 | O=C1CCC(N2Cc3cc(CNC(=O)c4ccc(O)cc4)c(F)cc3C2=O)C(=O)N1 (stereo not shown) [FDAB-28] |  |  |
| > 1000 | < 25 | O=C1CCC(N2Cc3cc(CNC(=O)c4ccccn4)c(F)cc3C2=O)C(=O)N1 (stereo not shown) [FDAB-29] |  |  |
| > 1000 | < 25 | O=C1CCC(N2Cc3cc(CNC(=O)c4cccnc4)c(F)cc3C2=O)C(=O)N1 (stereo not shown) [FDAB-30] |  |  |
| > 1000 | < 25 | O=C1CCC(N2Cc3cc(CNC(=O)c4ccncc4)c(F)cc3C2=O)C(=O)N1 (stereo not shown) [FDAB-31] |  |  |
| 10 to 100 | > 80 | O=C1CCC(N2Cc3cc(CNC(=O)c4nc5ccccc5s4)c(F)cc3C2=O)C(=O)N1 (stereo not shown) [FDAB-32] |  |  |
| > 1000 | < 25 | O=C1CCC(N2Cc3cc(CNC(=O)c4nc5ccccc5[nH]4)c(F)cc3C2=O)C(=O)N1 (stereo not shown) [FDAB-33] |  |  |
| > 1000 | < 25 | Nc1cccc(C(=O)NCc2cc3c(cc2F)C(=O)N(C2CCC(=O)NC2=O)C3)c1 (stereo not shown) [FDAB-34] |  |  |
| > 1000 | < 25 | O=C1CCC(N2Cc3cc(CNC(=O)c4cccc(O)c4)c(F)cc3C2=O)C(=O)N1 (stereo not shown) [FDAB-36] |  |  |
| 10 to 100 | 50 to 80 | COc1cccc(C(=O)NCc2cc3c(cc2F)C(=O)N(C2CCC(=O)NC2=O)C3)c1 (stereo not shown) [FDAB-37] |  |  |
| > 1000 | < 25 | O=C1CCC(N2Cc3cc(CNC(=O)c4ccncn4)c(F)cc3C2=O)C(=O)N1 (stereo not shown) [FDAB-38] |  |  |
| 10 to 100 | > 80 | Cc1ccc(C(=O)NCc2cc3c(cc2F)C(=O)N(C2CCC(=O)NC2=O)C3)cc1 (stereo not shown) [FDAB-51] |  |  |
| 1 to 10 | > 80 | O=C1CCC(N2Cc3cc(CNC(=O)c4ccc(C(F)(F)F)cc4)c(F)cc3C2=O)C(=O)N1 (stereo not shown) [FDAB-52] |  |  |
| 1 to 10 | > 80 | O=C1CCC(N2Cc3cc(CNC(=O)c4ccc(Cl)c(O)c4)c(F)cc3C2=O)C(=O)N1 (stereo not shown) [FDAB-55] |  |  |
| > 1000 | < 25 | O=C1CCC(N2Cc3cc(CNC(=O)c4ccc(Cl)cn4)c(F)cc3C2=O)C(=O)N1 (stereo not shown) [FDAB-56] |  |  |
| 10 to 100 | > 80 | Cc1nc2cc(C(=O)NCc3cc4c(cc3F)C(=O)N(C3CCC(=O)NC3=O)C4)ccc2s1 (stereo not shown) [FDAB-58] |  |  |
| > 1000 | > 80 | Cn1ccc2ccc(C(=O)NCc3cc4c(cc3F)C(=O)N(C3CCC(=O)NC3=O)C4)cc21 (stereo not shown) [FDAB-59] |  |  |
| 10 to 100 | > 80 | O=C1CCC(N2Cc3cc(CNC(=O)c4ccc5ccccc5n4)c(F)cc3C2=O)C(=O)N1 (stereo not shown) [FDAB-60] |  |  |
| 10 to 100 | > 80 | O=C1CCC(N2Cc3c(ccc(CNC(=O)c4ccc5ccccc5n4)c3F)C2=O)C(=O)N1 (stereo not shown) [FDAB-66] |  |  |
| > 1000 | < 25 | O=C1CCC(N2Cc3cc(CNC(=O)c4cc5ccccc5o4)c(Cl)cc3C2=O)C(=O)N1 (stereo not shown) [FDAB-71] |  |  |

Further lines, the molecule ahead of its results:

| SMILES | IC50 ([1]; MV4-11, MV-4-11 cells, 72 h) [nM] | inhibition at 1 µM ([2]; NB-4 cells, compound 1 μM, 6 h) [%] | IC50 ([1]; MV4-11, 72 h) [nM] | inhibition at 1 µM ([2]; NB-4, 6 h) [%] |
| --- | --- | --- | --- | --- |
| N#Cc1cc2c(cc1Cl)C(=O)N(C1CCC(=O)NC1=O)C2 (stereo not shown) [FDAB-13] | > 1000 | < 25 |  |  |
| CC(C)(C)OC(=O)NCc1cc2c(cc1Cl)C(=O)N(C1CCC(=O)NC1=O)C2 (stereo not shown) [FDAB-14] | > 1000 | < 25 |  |  |
| NCc1cc2c(cc1Cl)C(=O)N(C1CCC(=O)NC1=O)C2 (stereo not shown) [FDAB-15] | > 1000 | < 25 |  |  |
| NCc1cc(F)cc2c1CN(C1CCC(=O)NC1=O)C2=O (stereo not shown) [FDAB-17] | 100 to 1000 | < 25 |  |  |
| [2H]c1c([2H])c(C(=O)NCc2ccc3c(c2F)CN(C2CCC(=O)NC2=O)C3=O)c([2H])c([2H])c1Cl (stereo not shown) [FDAB-18] |  |  | 10 to 100 | > 80 |
| O=C1CCC(N2Cc3cc(CNC(=O)c4cc5cc(Cl)ccc5o4)c(F)cc3C2=O)C(=O)N1 (stereo not shown) [FDAB-20] | 1 to 10 | > 80 |  |  |
| O=C1CCC(N2Cc3cc(CNC(=O)c4cc5ccccc5o4)cc(F)c3C2=O)C(=O)N1 (stereo not shown) [FDAB-21] | > 1000 | < 25 |  |  |
| O=C1CCC(N2Cc3cc(CNC(=O)c4cc5cc(Cl)ccc5o4)cc(F)c3C2=O)C(=O)N1 (stereo not shown) [FDAB-22] | > 1000 | < 25 |  |  |
| O=C1CCC(N2Cc3cc(CNC(=O)c4cc5cc(F)ccc5o4)c(F)cc3C2=O)C(=O)N1 (stereo not shown) [FDAB-35] | 10 to 100 | 50 to 80 |  |  |
| O=C1CCC(N2Cc3cc(CNC(=O)C4CC4)c(F)cc3C2=O)C(=O)N1 (stereo not shown) [FDAB-40] | > 1000 | < 25 |  |  |
| O=C1CCC(N2Cc3cc(CNC(=O)C4CCCC4)c(F)cc3C2=O)C(=O)N1 (stereo not shown) [FDAB-41] | > 1000 | < 25 |  |  |
| O=C1CCC(N2Cc3cc(CNC(=O)C4CCCCC4)c(F)cc3C2=O)C(=O)N1 (stereo not shown) [FDAB-42] | > 1000 | < 25 |  |  |
| O=C1CCC(N2Cc3cc(CNC(=O)c4cnco4)c(F)cc3C2=O)C(=O)N1 (stereo not shown) [FDAB-43] | > 1000 | < 25 |  |  |
| O=C1CCC(N2Cc3cc(CNC(=O)c4cncs4)c(F)cc3C2=O)C(=O)N1 (stereo not shown) [FDAB-44] | > 1000 | < 25 |  |  |
| O=C1CCC(N2Cc3c(ccc(CNC(=O)c4cc5ccccc5o4)c3F)C2=O)C(=O)N1 (stereo not shown) [FDAB-45] | 1 to 10 | > 80 |  |  |
| O=C1CCC(N2Cc3c(ccc(CNC(=O)c4cc5cc(Cl)ccc5o4)c3F)C2=O)C(=O)N1 (stereo not shown) [FDAB-47] | 1 to 10 | > 80 |  |  |

| SMILES | IC50 ([1]; MV4-11, MV-4-11 cells, 72 h) [nM] | inhibition at 1 µM ([2]; NB-4 cells, compound 1 μM, 6 h) [%] | IC50 ([1]; MV4-11, 72 h) [nM] | inhibition at 1 µM ([2]; NB-4, 6 h) [%] |
| --- | --- | --- | --- | --- |
| O=C1CCC(N2Cc3c(ccc(CNC(=O)c4ccc(F)cc4)c3F)C2=O)C(=O)N1 (stereo not shown) [FDAB-49] | > 1000 | < 25 |  |  |
| O=C1CCC(N2Cc3c(ccc(CNC(=O)c4ccc(Cl)cc4Cl)c3F)C2=O)C(=O)N1 (stereo not shown) [FDAB-50] | 1 to 10 | > 80 |  |  |
| O=C1CCC(N2Cc3cc(CNC(=O)c4ccc(Cl)c(F)c4)c(F)cc3C2=O)C(=O)N1 (stereo not shown) [FDAB-53] | 10 to 100 | > 80 |  |  |
| N#Cc1cc(C(=O)NCc2cc3c(cc2F)C(=O)N(C2CCC(=O)NC2=O)C3)ccc1Cl (stereo not shown) [FDAB-54] | 10 to 100 | 50 to 80 |  |  |
| O=C1CCC(N2Cc3c(ccc(CNC(=O)c4ccc(C(F)(F)F)cc4)c3F)C2=O)C(=O)N1 (stereo not shown) [FDAB-61] | 1 to 10 | > 80 |  |  |
| O=C1CCC(N2Cc3c(ccc(CNC(=O)c4ccc(Cl)cn4)c3F)C2=O)C(=O)N1 (stereo not shown) [FDAB-62] | > 1000 | < 25 |  |  |
| CCC#CC(=O)NCc1cc2c(cc1F)C(=O)N(C1CCC(=O)NC1=O)C2 (stereo not shown) [FDAB-63] | > 1000 | < 25 |  |  |
| O=C(C#CC1CC1)NCc1cc2c(cc1F)C(=O)N(C1CCC(=O)NC1=O)C2 (stereo not shown) [FDAB-64] | 100 to 1000 | 50 to 80 |  |  |
| O=C1CCC(N2Cc3c(ccc(CNC(=O)c4cc5ccccc5o4)c3Cl)C2=O)C(=O)N1 (stereo not shown) [FDAB-67] | 1 to 10 | > 80 |  |  |
| O=C1CCC(N2Cc3c(ccc(CNC(=O)c4cc5cc(F)ccc5o4)c3Cl)C2=O)C(=O)N1 (stereo not shown) [FDAB-69] | 1 to 10 | 50 to 80 |  |  |
| O=C1CCC(N2Cc3c(ccc(CNC(=O)c4ccc(Cl)cc4)c3Cl)C2=O)C(=O)N1 (stereo not shown) [FDAB-70] | 100 to 1000 | 25 to 50 |  |  |
| O=C1CCC(N2Cc3cc(CNC(=O)c4cc5cc(Cl)ccc5o4)c(Cl)cc3C2=O)C(=O)N1 (stereo not shown) [FDAB-72] | > 1000 | < 25 |  |  |
| O=C1CCC(N2Cc3cc(CNC(=O)c4cc5cc(F)ccc5o4)c(Cl)cc3C2=O)C(=O)N1 (stereo not shown) [FDAB-73] | > 1000 | < 25 |  |  |
| O=C1CCC(N2Cc3cc(CNC(=O)c4ccc(Cl)cc4)c(Cl)cc3C2=O)C(=O)N1 (stereo not shown) [FDAB-74] | > 1000 | < 25 |  |  |
| O=C1CCC(N2Cc3c(ccc(CNC(=O)c4cc5ccccc5[nH]4)c3Cl)C2=O)C(=O)N1 (stereo not shown) [FDAB-75] | 1 to 10 | 50 to 80 |  |  |
